This note sets out measurements from patent US20260315608A1, “Carrier Peptide Fragment and Use Thereof” (TOAGOSEI CO., LTD., priority 2022, published 2026).

The test system of the test is NSC-34 cells. As to the kind of experiment: Evaluation on cell membrane permeability by flow cytometry (median fluorescence intensity). It is filed as cell-based, mouse. The settings on record: for MFI (median fluorescence intensity): 25 μM in well, 0.42% DMSO, 20 hours at 37° C., 10% FBS-containing DMEM, detector FL2; for cell membrane permeability: 25 μM, 20 hours, FAM as foreign substance, in words. As to the method:
As the eukaryotic cells, NSC-34 cells (mouse motor neuron-like hybrid cell line) were used and the cell membrane permeability of the samples 1 to 7 was analyzed. In Examples 1 to 7, the prepared sample solutions 1 to 7 were used, respectively, and in Example 8, a FAM solution was used.
The NSC-34 cells were cultured in 10% fetal bovine serum (FBS)-containing Dulbecco's modified Eagle's medium (DMEM (Cat No. 044-29765, manufactured by FUJIFILM Wako Pure Chemical Corporation)), which is a normal culture medium.
The NSC-34 cells that adhered to a culture plate were cleaned with PBS and then, a 0.25%-trypsin/EDTA solution was added thereto, and incubation was performed for three minutes at 37° C. After the incubation, the aforementioned 10% FBS-containing DMEM was added to deactivate trypsin and then, five-minute centrifugal separation was performed at 150×g to precipitate the cells. After the supernatant generated by the centrifugal separation was removed, the 10% FBS-containing DMEM was added to the precipitate (cell pellet) to prepare a cell suspension of about 2×10^5 cells/mL. The cell suspension was added by 1 mL to a well of a commercially available six-hole (well) plate (manufactured by AGC TECHNO GLASS Co., Ltd.) so as to seed the cell (about 2×10^5 cells/well). In addition, the 6 mM sample solution 1 was diluted with the 10% FBS-containing DMEM to prepare the sample solution 1 in which the concentration of the sample 1 was 50 μM. Then, 1 mL of the 50 μM sample solution 1 was added to the well (that is, so that the concentration of the sample 1 became 25 µM and the DMSO concentration became 0.42% in the culture solution in the well). After that, the cell was incubated for 20 hours at 37° C. under a 5% CO2 condition.
After the 20-hour incubation, the culture supernatant was removed from the well and the cells in the well were cleaned twice with 1 mL of PBS. Next, 200 μL of the 0.25% trypsin/EDTA solution was added to the well and the incubation was performed for three minutes at 37° C. After the incubation, 400 μL of the 10% FBS-containing DMEM was added to the well to deactivate the trypsin. Subsequently, the cell suspension in the well was transferred to a tube and the cells were collected. After that, 600 μL of PBS was added further to the well to clean the well. Then, PBS in the well was transferred to the tube, so that the cells remaining in the well were collected in the tube. This tube was subjected to five-minute centrifugal separation at 4° C. under a condition of 210×g. After the centrifugal separation, the supernatant was removed and the precipitate (cell pellet) was suspended (cleaned) with 1 mL of PBS, which was followed by the centrifugal separation under the same condition as that described above. After this operation was repeated twice, the supernatant was removed and thus, the cells (cell pellet) cultured in a culture medium containing the sample 1 were obtained.
Regarding the obtained cells (cell pellet), the cell membrane permeability of the sample 1 was analyzed using a flow cytometer. As the flow cytometer, On-Chip Flowcytometer (manufactured by On-Chip Biotechnologies Co., LTD.) was used.
For such an analysis, the obtained cell pellet was suspended with 100 μL of on-chip T buffer to prepare a cell suspension for analysis.
Using the aforementioned flow cytometer, gating based on forward scatter (FSC) and side scatter (SSC) was performed to set a gate about a cell group to be analyzed, and the fluorescence intensity was measured about the cell group in this gate. Note that the analysis was performed so that the cell group contained at least 10000 cells or more. The fluorescence intensity was measured using a fluorescence detector FL2 of the flow cytometer (optimum detection wavelength around 543 nm) capable of detecting the fluorescence wavelength of FAM. […]
In general terms: In flow cytometry, cells or beads pass a laser one at a time.

Primed or numbered codes have the meaning given here. FAM″ = C-terminal FAM dye

“Ac-KKRTLRKEDEDEDRKKR-FAM (Ac-KKRTLRKEDEDEDRKKR-{FAM}) [Example 7]”: the “MFI (median fluorescence intensity)” value turned out to be 14.3.
On to “Ac-KKRTLRKEDRKKR-FAM (Ac-KKRTLRKEDRKKR-{FAM}) [Example 2]”, for which the “MFI (median fluorescence intensity)” value was 15.7 and the cell membrane permeability entry is reported as “have the cell membrane permeability”.
For “Ac-KKRTLRKDERKKR-FAM (Ac-KKRTLRKDERKKR-{FAM}) [Example 1]”, in that order: 16.3 and “have the cell membrane permeability”.
On to “Ac-KKRTLRKDEDERKKR-FAM (Ac-KKRTLRKDEDERKKR-{FAM}) [Example 6]”, for which the “MFI (median fluorescence intensity)” value came out at 15.2.
As to “5 (6)-carboxyfluorescein [Example 8, reference compound]”, the “MFI (median fluorescence intensity)” value was 11.
Still for that read-out and setting: the value for “Ac-KKRTLRKEDEDRKKR-FAM (Ac-KKRTLRKEDEDRKKR-{FAM″}) [Example 3]” was 13.8; that for “Ac-KKRTLRKDDEERKKR-FAM (Ac-KKRTLRKDDEERKKR-{FAM}) [Example 5]” was 14.8.
Consider “Ac-KKRTLRKEEDDRKKR-FAM (Ac-KKRTLRKEEDDRKKR-{FAM}) [Example 4]”, for which the “MFI (median fluorescence intensity)” value stood at 14.3.
